The test system of assay [1] is B16V mouse melanoma cells. The assay can be described thus: Depigmenting effect on melanoma cell cultures (inhibition of pigmentation). The settings on record: read-out: IC 50 (concentration at which pigmentation is inhibited by 50%). It counts as cell-based. The method, then: B16V mouse melanoma cells are disseminated in a 96-well microtitre plate in a concentration of 5×10^3 cells/well. After cultivation for 24 h at 37° C. and 5% CO2 in RPMI medium, enriched with 10% foetal calf serum, various concentrations of the test substances and 0.3 mM tyrosine and 10 nM α-MSH (α-melanocyte stimulating hormone) are added and incubated for a further 96 h. The maximum concentration of the test substances used corresponds to 0.1 times the value of the IC20 value of the cytotoxicity assay. Standards are incubated with kojic acid in concentrations of 0.01 mM, 0.1 mM and 1 mM in addition to tyrosine and α-MSH. Only tyrosine and α-MSH are added to the controls. After incubation, sodium lauryl sulfate and sodium hydroxide solution (final concentrations: 1 mM and 1 M respectively) are added to the culture medium and the absorption (A) is measured after 3 h at 400 nm.
The inhibition of pigmentation in the presence of the test compounds or kojic acid was calculated using the following equation: Inhibition of pigmentation(%)=100−[(Atest compound/Acontrol)×100] wherein Atest compound=absorption of the wells with test substance and with cells Acontrol=absorption of the wells without test substance, but with cells
From the inhibition of pigmentation (%) in a series of dilutions of test compounds, the IC50 for each test compound is calculated. This is the concentration of a test compound at which pigmentation is inhibited by 50%.

Assay [2] has as its system Pigmented pig skin. The assay can be described thus: Depigmenting effect on ex vivo skin (melanin granules, Fontana-Masson staining, image analysis). It is filed as cell-based. The settings on record: 1 wt.% in O/W emulsion applied topically, 6 days, vs. emulsion without test compound. As for the experimental part: Pigmented pig skin was excised from animals (slaughtered for meat production; the pig skin model included the subcutis fat layer as described in EP 1 939 27), cut into 4×4×3 mm pieces (length×width×height) and placed in culture at the air-liquid interface on a sterilized cotton pad soaked with 5 ml of customized DMEM (Dulbecco's Modified Eagle Medium). Assays were started 24 h after sample acclimatization at 37° C., 5% CO2. O/W emulsions (as described in more detail below) without (=control) and with the test compounds, respectively, were applied topically and incubated for 6 days. Histological sections were prepared and melanin granules stained by Fontana-Masson technique. The granules were quantified by image analysis.
The O/W emulsions used had the following composition:
Phases A and B are heated to 70° C. separately. Pemulen TR1 as well as Ultrez-21 are dispersed in phase B when heated to 70° C. Phase B/C is added to phase A by mixing with an Ultra Turrax, followed by emulsifying. Phase D is slowly added to phase A/B/C using a paddle mixer and a pH 5.5-6 is adjusted. The formulation is cooled down while mixing with a paddle mixer. Phase E is prepared by dissolving one or more compounds of formula (I) in Hydrolite-5. Subsequently, phase E is added to the mixture of phase A-D.

[3] abbreviates: B16V cells, 0.3 mM tyrosine and 10 nM α-MSH, 96 h incubation, absorption at 400 nm.

Read-outs that look alike come from different tables or passages of the source.

On to `CC(C)OCCCNC(=O)O[C@@H]1C[C@H](C)CC[C@H]1C(C)C` [BIO1268, (3-Isopropoxy-propyl)-carbamic acid (1R,2S,5R)-2-isopropyl-5-methyl-cyclohexyl ester], for which, in assay [1] (setting [3]), the IC50 was determined as 19.6 µM.
In the case of `CCNC(=O)O[C@H]1C[C@H](C)CC[C@H]1C(C)C` [BIO1461, Ethyl-carbamic acid (1S,2S,5R)-2-isopropyl-5-methyl-cyclohexyl ester], the IC50 in assay [1] (setting [3]) came to 28.7 µM.
Turning to `CC(C)[C@@H]1CC[C@@H](C)C[C@H]1OC(=O)Nc1ccccc1` [BIO1580, Phenyl-carbamic acid (1R,2S,5R)-2-isopropyl-5-methyl-cyclohexyl ester], the IC50 in assay [1] (setting [3]) worked out at 6.9 µM.
As to `COCCNC(=O)O[C@@H]1C[C@H](C)CC[C@H]1C(C)C` [BIO1336, (2-Methoxy-ethyl)-carbamic acid (1R,2S,5R)-2-isopropyl-5-methyl-cyclohexyl ester], in assay [1] (setting [3]), the IC50 is 35.3 µM.
As for `CC(C)[C@@H]1CC[C@@H](C)C[C@H]1OC(=O)NCc1ccccc1` [BIO1695, Benzyl-carbamic acid (1R,2S,5R)-2-isopropyl-5-methyl-cyclohexyl ester], the IC50 in assay [1] (setting [3]) came to 7.7 µM.
As for `CCN(CC)C(=O)O[C@@H]1C[C@H](C)CC[C@H]1C(C)C` [BIO1553, Diethyl-carbamic acid (1R,2S,5R)-2-isopropyl-5-methyl-cyclohexyl ester], the IC50 in assay [1] (setting [3]) amounted to 10.7 µM.
On to `CC(C)[C@@H]1CC[C@@H](C)C[C@H]1OC(=O)NCc1ccc2c(c1)OCO2` [BIO1571, Benzo[1,3]dioxol-5-ylmethyl-carbamic acid (1R,2S,5R)-2-isopropyl-5-methyl-cyclohexyl ester], for which, in assay [1] (96 h), the IC50 is 5.5 µM.
As for `OC[C@H]1O[C@@H](Oc2ccc(O)cc2)[C@H](O)[C@@H](O)[C@@H]1O` [beta-Arbutin, reference compound], in assay [1] (setting [3]), the IC50 turned out to be 67 µM.
As for `CCOc1ccccc1NC(=O)O[C@@H]1C[C@H](C)CC[C@H]1C(C)C` [BIO1632, (2-Ethoxy-phenyl)-carbamic acid (1R,2S,5R)-2-isopropyl-5-methyl-cyclohexyl ester], the IC50 in assay [1] (setting [3]) came out at 3.2 µM.
The same measure, in the same setting: as for `CC(C)[C@@H]1CC[C@@H](C)C[C@H]1OC(=O)NCC1CCCCC1` [BIO1699, Cyclohexylmethyl-carbamic acid (1R,2S,5R)-2-isopropyl-5-methyl-cyclohexyl ester], the figure is 1.4 µM.
On the same count and under the same terms, the value for `COCCCNC(=O)O[C@H]1C[C@H](C)CC[C@H]1C(C)C` [BIO1460, (3-Methoxy-propyl)-carbamic acid (1S,2S,5R)-2-isopropyl-5-methyl-cyclohexyl ester] was 7.3 µM.
On to `CCNC(=O)O[C@@H]1C[C@H](C)CC[C@H]1C(C)C` [BIO1151, Ethyl-carbamic acid (1R,2S,5R)-2-isopropyl-5-methyl-cyclohexyl ester], for which the IC50 in assay [1] (setting [3]) is 40.9 µM. The “Melanin score vs. Control” value in assay [2] is listed as −44%.
Regarding `CCNC(=O)O[C@H]1C[C@@H](C)CC[C@@H]1C(C)C` [BIO1378, Ethyl-carbamic acid (1S,2R,5S)-2-isopropyl-5-methyl-cyclohexyl ester], in assay [1] (setting [3]), the IC50 stood at 29.3 µM.
Take `CCCCCCNC(=O)O[C@@H]1C[C@H](C)CC[C@H]1C(C)C` [BIO1271, Hexyl-carbamic acid (1R,2S,5R)-2-isopropyl-5-methyl-cyclohexyl ester]: in assay [1] (setting [3]), the IC50 came out at 18.9 µM.
Regarding `CNC(=O)O[C@H]1C[C@@H](C)CC[C@@H]1C(C)C` [BIO1301, Methyl-carbamic acid (1S,2R,5S)-2-isopropyl-5-methyl-cyclohexyl ester], the IC50 in assay [1] (setting [3]) turned out to be 63.9 µM.
With `COCCCNC(=O)O[C@H]1C[C@@H](C)CC[C@@H]1C(C)C` [BIO1339, (3-Methoxy-propyl)-carbamic acid (1S,2R,5S)-2-isopropyl-5-methyl-cyclohexyl ester], the IC50 in assay [1] (setting [3]) came out at 53.2 µM.
Consider `COCCCNC(=O)O[C@@H]1C[C@H](C)CC[C@H]1C(C)C` [BIO1155, (3-Methoxy-propyl)-carbamic acid (1R,2S,5R)-2-isopropyl-5-methyl-cyclohexyl ester], for which, in assay [1] (setting [3]), the IC50 was 22.1 µM. Moreover, the “Melanin score vs. Control” value in assay [2] was −46%.
On to `CC(C)[C@@H]1CC[C@@H](C)C[C@H]1OC(=O)NC1CCCCC1` [BIO1266, Cyclohexyl-carbamic acid (1R,2S,5R)-2-isopropyl-5-methyl-cyclohexyl ester], for which the IC50 in assay [1] (setting [3]) is 18.8 µM.
The same measure, in the same setting: the value for `CCCCNC(=O)O[C@@H]1C[C@H](C)CC[C@H]1C(C)C` [BIO1267, Butyl-carbamic acid (1R,2S,5R)-2-isopropyl-5-methyl-cyclohexyl ester] was 498 µM.
`CC(C)[C@@H]1CC[C@@H](C)C[C@H]1OC(=O)NCCCCCCO` [BIO1662, (6-Hydroxy-hexyl)-carbamic acid (1R,2S,5R)-2-isopropyl-5-methyl-cyclohexyl ester]: the IC50 in assay [1] (setting [3]) came to 50.7 µM.
On the same count and under the same terms, as for `CC(C)CNC(=O)O[C@@H]1C[C@H](C)CC[C@H]1C(C)C` [BIO1159, Isobutyl-carbamic acid (1R,2S,5R)-2-isopropyl-5-methyl-cyclohexyl ester], the figure is 100 µM; as for `CNC(=O)O[C@@H]1C[C@H](C)CC[C@H]1C(C)C` [BIO1185, Methyl-carbamic acid (1R,2S,5R)-2-isopropyl-5-methyl-cyclohexyl ester], 109 µM.
Turning to `CC(=O)c1ccccc1NC(=O)O[C@@H]1C[C@H](C)CC[C@H]1C(C)C` [BIO1633, (2-Acetyl-phenyl)-carbamic acid (1R,2S,5R)-2-isopropyl-5-methyl-cyclohexyl ester], the IC50 in assay [1] (setting [3]) was determined as 25.4 µM.
The same measure, in the same setting: as for `CC(C)[C@@H]1CC[C@@H](C)C[C@H]1OC(=O)NCC1CCCO1` (stereo partly drawn) [BIO1702, (Tetrahydro-furan-2-ylmethyl)-carbamic acid (1R,2S,5R)-2-isopropyl-5-methyl-cyclohexyl ester], the figure is 14.8 µM.

Values taken from US9060949B2, “Menthyl carbamate compounds as skin and/or hair lightening actives” (SYMRISE AG, priority 2010, dated 2015).
